Results reported in US20230138752A1, “PLASTICIZERS TO IMPROVE RELEASE PERFORMANCE OF AMORPHOUS SOLID DISPERSIONS” (Purdue Research Foundation, priority 2021, published 2023).
Entries after “also recorded” stand apart in the source; their conditions may differ. Where a name gives a salt, the structure may show the parent alone. Read-outs that look alike come from different tables or passages of the source. Values belong to the molecule of their own block, whether it stands above or below them.

Assays:
[1] = API:plasticizer 8:1 miscibility and Tg depression by DSC; type: physicochemical
Experimental: API:plasticizer at a ratio 8:1 was prepared by rotary evaporation to evaluate miscibility and Tg depression produced by the plasticizer. 3 to 5 mg was accurately weighed in an aluminum pan with a hermetic lid with a pinhole. Since the Tg was evaluated after only 1 hour of vacuum drying to avoid crystallization, a second drying was done by employing an isothermal hold at 20° C. in the DSC with nitrogen flow for at least 20 minutes. Then, the sample was cooled to −60 and heated at 2° C./min to 210° C. with a modulation period +/−1° C. every 60 seconds.

[2] = literature; cited from earlier work
[3] = Surface normalized dissolution of ASD tablets (release, limit of congruency); type: physicochemical; settings: for limit of congruency (LoC) of ATZ-PVPVA ASDs: ASD containing 5% w/w of the plasticizer; for normalized release rate of drug and polymer versus neat PVPVA / increase in LoC of ATZ versus binary ASD: ATZ-PVPVA ASD; for normalized release rate of drug and polymer versus neat PVPVA: ATZ 10 DL+GTA, ATZ 25DL+GTB; for limit of congruency (LoC) of LED-PVPVA ASDs: ASD containing 10% w/w of the plasticizer; for release of LED / total release of LED: LED 10% DL; for increase in LoC of LED versus binary ASD: LED-PVPVA ASD; for dissolution rate of PVPVA containing plasticizer versus neat PVPVA: PVPVA with 10% w/w plasticizer, no drug; for lag time in the release profile: ATZ-PVPVA ASD at the LoC (20% DL TEC, 25% DL TEAC and TBAC)
Experimental: All dissolution experiments were conducted in 50 mM phosphate buffer pH 6.8 prepared by dissolving 3.52 g of sodium phosphate monobasic monohydrate and 3.48 g of sodium phosphate dibasic anhydrous to 1L with Milli-Q water. The pH was adjusted to pH 6.8 if needed using HCl or NaOH.
Surface normalized dissolution was employed to evaluate the release performance of the ASDs and to calculate the normalized release rate. A Hanson Vision G2 dissolution tester with a Vision heater (Teledyne Hanson Chatsworth, CA) was utilized. A tablet was prepared immediately prior to the dissolution test by compressing 100 mg of ASD in an 8 mm die at 2 500 psi for 60 seconds yielding a tablet surface are of 50 mm^2. The temperature was maintained at 37° C., the rotation speed was 100 rpm, and the dissolution medium was 50 mM phosphate buffer pH 6.8 degassed and pre-equilibrated at 37° C. 100 to 200 μl of sample was withdrawn every 5 min for the initial 20 minutes, then every 10 minutes until 60 minutes and finally at 75, 90 and 120 minutes. The medium was replenished after each sample withdrawal to maintain a constant volume.
The concentration of API and polymer during the dissolution was assessed by high performance liquid chromatography (HPLC) using an Agilent 1100 system (Agilent Technologies, Santa Clara, Calif.). An Ascentis® Express C18 10 cm×3 mm with 2.7 μm particle size column (Sigma-Aldrich St. Louis, Mo.) was employed for separation of ATZ, RTV, and LED. […] For ATZ and LED, the mobile phase was aqueous TFA 0.1% v/v:acetonitrile (ACN) 6:4 v/v at a flow rate of 0.5 ml/min, injection volume 10 detection wavelength (X.) 210 nm, and column temperature 40° C. For RTV, the mobile phase was aqueous TFA 0.1% v/v:ACN 6:4 v/v, flow rate 0.5 ml/min, injection volume 10 detection λ 241 nm and column temperature 40° C.
The surface normalized dissolution rate (R) was calculated based on the mg released versus time profile. The slope from cumulative mg release vs time represents the release rate (k). To normalize, k was divided by the tablet surface area (S, 0.5 cm^2) times the fraction of the component (x) (Equation 1)

[4] = Dynamic vapor sorption (DVS), isothermal water sorption; type: physicochemical; settings: for effect of plasticizer on polymer (PVPVA) water sorption: PVPVA containing GTB or TBC
Experimental: The isothermal water sorption at 37° C. was measured for selected ASDs using a DVS-Advantage device (Surface Measurement System Ltd Allentown, Pa.). Around 5 mg of sample was first dried at 0% relative humidity (RH) and 37° C. for one hour followed by exposure to 95% RH and 37° C. for at least 8 hours. Percent of water sorbed and derivative of percent mass over time (dm/dT %) was analyzed.

[5] = Glass transition temperature (Tg) by DSC; type: physicochemical; settings: for Tg of the API: neat API (dry Tg); for reduction of ASD Tg on increasing plasticizer from 5 to 10% w/w: LED 10% DL
Experimental: Glass transition temperature and plasticizer-API miscibility was determined using a TA Q2000 differential scanning calorimeter (DSC) (TA Instruments, New Castle, DE) with a refrigerated cooling accessory (RCS) using N2 as the purge gas at a flow of 50 ml/min. For Tg determination, around 5 mg of sample was accurately weighed into an aluminum pan with a Tzero lid and subject to a cool-heat-cool cycle. Samples were cooled at -20° C. and heated up to 220° C. The heating was done in modulated mode at a heating rate of 2° C/min with a modulation period of +/−1° C. every 60 seconds. The midpoint temperature of the heat capacity change in the thermogram from the second heating cycle scan was taken as the Tg. The DSC was calibrated with indium at the appropriate heating rate.

[6] = 20% DL ATZ ternary ASD, 5% w/w plasticizer, 95% RH/37° C.

Compound: COC(=O)N[C@H](C(=O)N[C@@H](Cc1ccccc1)[C@@H](O)CN(Cc1ccc(-c2ccccn2)cc1)NC(=O)[C@@H](NC(=O)OC)C(C)(C)C)C(C)(C)C [ATZ, atazanavir]
- Tg ([1]; ATZ:plasticizer 8:1 amorphous mix): 105.5 °C
- limit of congruency (LoC) of PVPVA-based ASD, reported [2]: ~5 % DL

Compound: CC(=O)OCC(CO)OC(C)=O (stereo not shown) [GDA, glycerol diacetate]
- limit of congruency (LoC) of ATZ-PVPVA ASDs [3]: 7.5 % DL

Compound: CC(=O)OCC(COC(C)=O)OC(C)=O [GTA, Glycerol triacetate]
- limit of congruency (LoC) of ATZ-PVPVA ASDs [3]: 10 % DL
- normalized release rate of drug and polymer versus neat PVPVA ([3]; 5% w/w plasticizer): faster than that of neat PVPVA

Compound: CCCC(=O)OCC(COC(=O)CCC)OC(=O)CCC [GTB, Glycerol tributyrate]
- release from RTV-PVPVA ASD ([3]; 30% DL, 5% w/w plasticizer): Complete release
- release from RTV-PVPVA ASD ([3]; 35% DL, 5% w/w plasticizer): not at 35% DL
- limit of congruency (LoC) of ATZ-PVPVA ASDs [3]: 25 % DL
- limit of congruency (LoC) of LED-PVPVA ASDs [3]: 20 % DL
- increase in LoC of ATZ versus binary ASD ([3]; 5% w/w plasticizer): 5 fold
- normalized release rate of drug and polymer versus neat PVPVA ([3]; 5% w/w plasticizer): faster than that of neat PVPVA
- release of LED ([3]; 10% w/w plasticizer): complete drug release
- increase in LoC of LED versus binary ASD ([3]; 10% w/w plasticizer): 4 fold
- dissolution rate of PVPVA containing plasticizer versus neat PVPVA [3]: as much as twice; also recorded: faster dissolution rate
- water uptake versus binary 20% DL ATZ ASD [4, 6]: more prominent increase of water uptake
- effect of plasticizer on polymer (PVPVA) water sorption [4]: dramatically reduced

Compound: COC(=O)N[C@H](C(=O)N1CC2(CC2)C[C@H]1c1nc(-c2ccc3c(c2)C(F)(F)c2cc(-c4ccc5[nH]c([C@@H]6[C@H]7CC[C@H](C7)N6C(=O)[C@@H](NC(=O)OC)C(C)C)nc5c4)ccc2-3)c[nH]1)C(C)C [LED, ledipasvir]
- Tg of the API [5]: 160 °C
- Tg ([1]; LED:plasticizer 8:1 amorphous mix): 162 °C
- limit of congruency (LoC) of PVPVA-based ASD, reported [2]: ~5 % DL

Compound: CCCCOC(=O)CC(CC(=O)OCCCC)(OC(C)=O)C(=O)OCCCC [TBAC, Tributyl-o-acetylcitrate]
- limit of congruency (LoC) of ATZ-PVPVA ASDs [3]: 25 % DL
- lag time in the release profile ([3]; 5% w/w plasticizer): around 20 min

Compound: CCOC(=O)CC(CC(=O)OCC)(OC(C)=O)C(=O)OCC [TEAC, triethyl acetyl citrate]
- limit of congruency (LoC) of ATZ-PVPVA ASDs [3]: 25 % DL
- limit of congruency (LoC) of LED-PVPVA ASDs [3]: 15 % DL
- lag time in the release profile ([3]; 5% w/w plasticizer): around 20 min
- total release of LED ([3]; 5% w/w plasticizer): 20%
- release of LED ([3]; 10% w/w plasticizer): complete drug release
- reduction of ASD Tg on increasing plasticizer from 5 to 10% w/w [5]: 14 °C
- water uptake versus binary 20% DL ATZ ASD [4]: slight increase in water uptake

Compound: Clc1ccc(COC(Cn2ccnc2)c2ccc(Cl)cc2Cl)c(Cl)c1 (stereo not shown) [miconazole]
- limit of congruency (LoC) of PVPVA-based ASD, reported [2]: 25 % DL

The next lines start with results.

- increase in LoC of RTV versus binary ASD ([3]; RTV-PVPVA ASD with plasticizers GTB and TBC): 1.2 fold
- Tg of the API [5]: 50 °C
Compound: CC(C)c1nc(CN(C)C(=O)N[C@H](C(=O)N[C@@H](Cc2ccccc2)C[C@H](O)[C@H](Cc2ccccc2)NC(=O)OCc2cncs2)C(C)C)cs1 [RTV, ritonavir, reference compound]
- limit of congruency (LoC) of PVPVA-based ASD, reported [2]: 25 % DL

- release from RTV-PVPVA ASD ([3]; 30% DL, 5% w/w plasticizer): Complete release
- release from RTV-PVPVA ASD ([3]; 35% DL, 5% w/w plasticizer): not at 35% DL
- limit of congruency (LoC) of ATZ-PVPVA ASDs [3]: 25 % DL
- limit of congruency (LoC) of LED-PVPVA ASDs [3]: 15 % DL
- increase in LoC of ATZ versus binary ASD ([3]; 5% w/w plasticizer): 5 fold
- release of LED ([3]; 10% w/w plasticizer): complete drug release
- increase in LoC of LED versus binary ASD ([3]; 10% w/w plasticizer): 3 fold
- water uptake versus binary 20% DL ATZ ASD [4, 6]: slight increase in water uptake
- water uptake at 10, 20 and 30% DL ([4]; ATZ ternary ASD containing 5% w/w TBC): similar
- effect of plasticizer on polymer (PVPVA) water sorption [4]: dramatically reduced
Compound: CCCCOC(=O)CC(O)(CC(=O)OCCCC)C(=O)OCCCC [TBC, Tri-n-butyl citrate]
- dissolution rate of PVPVA containing plasticizer versus neat PVPVA [3]: as much as twice; also recorded: faster dissolution rate

- limit of congruency (LoC) of ATZ-PVPVA ASDs [3]: 20 % DL
- lag time in the release profile ([3]; 5% w/w plasticizer): around 20 min
- total release of LED ([3]; 5% w/w plasticizer): 12%
- reduction of ASD Tg on increasing plasticizer from 5 to 10% w/w [5]: 10 °C
Compound: CCOC(=O)CC(O)(CC(=O)OCC)C(=O)OCC [TEC, triethyl citrate]
- water uptake versus binary 20% DL ATZ ASD [4, 6]: very similar water uptake as the binary ASD

- limit of congruency (LoC) of ATZ-PVPVA ASDs [3]: 7.5 % DL
- release of LED ([3]; 5% w/w plasticizer): complete release
Compound: O=C(O)CC(O)(CC(=O)O)C(=O)O [citric acid]

- limit of congruency (LoC) of ATZ-PVPVA ASDs [3]: 7.5 % DL
- increase in LoC of ATZ versus binary ASD ([3]; 5% w/w plasticizer): 1.5 fold
Compound: OCC(O)CO [glycerol, Glycerol]
